Source: PubChem BioAssay (NCI)
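In this assay, cells in 96-well plates receive the compound at five concentrations for 48 hours. Endpoints are linearly interpolated between the surrounding concentrations. At the GI50, growth is halved. TGI is the concentration that stops growth completely.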

Legend:
Assay in all cases: inhibition of tumour cell growth, NCI panel, 48 h; in the data active means GI50 below about 0.43 µM; inactive means the rest
BT-549 breast = tested on: BT-549 breast
PC-3 prostate = tested on: PC-3 prostate
OVCAR-3 ovarian = tested on: OVCAR-3 ovarian
OVCAR-4 ovarian = tested on: OVCAR-4 ovarian
LOX IMVI melanoma = tested on: LOX IMVI melanoma
SNB-19 CNS = tested on: SNB-19 CNS
HCT-116 colon = tested on: HCT-116 colon
HS 578T breast = tested on: HS 578T breast
NCI-H522 lung = tested on: NCI-H522 lung
MCF7 breast = tested on: MCF7 breast
SNB-75 CNS = tested on: SNB-75 CNS
NCI-H23 lung = tested on: NCI-H23 lung
DU-145 prostate = tested on: DU-145 prostate
UACC-62 melanoma = tested on: UACC-62 melanoma
RXF 393 renal = tested on: RXF 393 renal
ACHN renal = tested on: ACHN renal
SF-539 CNS = tested on: SF-539 CNS
A549 NSCLC = tested on: A549 NSCLC
HCT-15 colon = tested on: HCT-15 colon
HT29 colon = tested on: HT29 colon
NCI-H460 lung = tested on: NCI-H460 lung
SK-MEL-5 melanoma = tested on: SK-MEL-5 melanoma
A498 renal = tested on: A498 renal
NCI/ADR-RES ovarian = tested on: NCI/ADR-RES ovarian
CAKI-1 renal = tested on: CAKI-1 renal
OVCAR-8 ovarian = tested on: OVCAR-8 ovarian
IGROV1 ovarian = tested on: IGROV1 ovarian
SR leukemia = tested on: SR leukemia
COLO 205 colon = tested on: COLO 205 colon
U251 CNS = tested on: U251 CNS
HOP-62 NSCLC = tested on: HOP-62 NSCLC
RPMI-8226 leukemia = tested on: RPMI-8226 leukemia
MOLT-4 leukemia = tested on: MOLT-4 leukemia
UO-31 renal = tested on: UO-31 renal
KM12 colon = tested on: KM12 colon
K-562 leukemia = tested on: K-562 leukemia
EKVX NSCLC = tested on: EKVX NSCLC
SF-295 CNS = tested on: SF-295 CNS
SW-620 colon = tested on: SW-620 colon
UACC-257 melanoma = tested on: UACC-257 melanoma
786-0 renal = tested on: 786-0 renal
T-47D breast = tested on: T-47D breast
M14 melanoma = tested on: M14 melanoma
MALME-3M melanoma = tested on: MALME-3M melanoma
SK-MEL-2 melanoma = tested on: SK-MEL-2 melanoma
SN12C renal = tested on: SN12C renal
SK-MEL-28 melanoma = tested on: SK-MEL-28 melanoma
HCC-2998 colon = tested on: HCC-2998 colon
OVCAR-5 ovarian = tested on: OVCAR-5 ovarian
SK-OV-3 ovarian = tested on: SK-OV-3 ovarian
CCRF-CEM leukemia = tested on: CCRF-CEM leukemia
MDA-MB-231 breast = tested on: MDA-MB-231 breast
HL-60(TB) leukemia = tested on: HL-60(TB) leukemia
HOP-92 NSCLC = tested on: HOP-92 NSCLC
NCI-H226 lung = tested on: NCI-H226 lung
MDA-MB-435 = tested on: MDA-MB-435
TK-10 renal = tested on: TK-10 renal

CN(C)[C@@H]1C(=O)C(C(=O)NCc2nc3[nH]cnc(=S)c3[nH]2)=C(O)[C@@]2(O)C(=O)C3=C(O)c4c(O)cccc4[C@@](C)(O)[C@H]3C[C@@H]12
inactive: GI50 (BT-549 breast) > 100 µM | GI50 (PC-3 prostate) 29.7 µM | GI50 (OVCAR-3 ovarian) 2.52 µM | GI50 (OVCAR-4 ovarian) 1.13 µM | GI50 (LOX IMVI melanoma) 1.23 µM | GI50 (SNB-19 CNS) > 100 µM | GI50 (HCT-116 colon) 3.3 µM | GI50 (HS 578T breast) > 100 µM | GI50 (NCI-H522 lung) > 100 µM | GI50 (MCF7 breast) 1570 nM | GI50 (SNB-75 CNS) 1.79 µM | GI50 (NCI-H23 lung) 8.85 µM | GI50 (DU-145 prostate) 4.43 µM | GI50 (UACC-62 melanoma) 2.91 µM | GI50 (RXF 393 renal) 26.1 µM | GI50 (ACHN renal) 16.1 µM | GI50 (SF-539 CNS) 3.67 µM | GI50 (A549 NSCLC) > 100 µM | GI50 (HCT-15 colon) 5.66 µM | GI50 (HT29 colon) 8.45 µM | GI50 (NCI-H460 lung) 19.1 µM | GI50 (SK-MEL-5 melanoma) 24.8 µM | GI50 (A498 renal) > 100 µM | GI50 (NCI/ADR-RES ovarian) 6.13 µM | GI50 (CAKI-1 renal) 3 µM | GI50 (OVCAR-8 ovarian) 6.78 µM | GI50 (IGROV1 ovarian) 16 µM | GI50 (SR leukemia) 1920 nM | GI50 (COLO 205 colon) 3.87 µM | GI50 (U251 CNS) > 100 µM | GI50 (HOP-62 NSCLC) 1.4 µM | GI50 (RPMI-8226 leukemia) 4.35 µM | GI50 (MOLT-4 leukemia) 5.04 µM | GI50 (UO-31 renal) 3.69 µM | GI50 (KM12 colon) 5.01 µM | GI50 (K-562 leukemia) 1410 nM | GI50 (EKVX NSCLC) > 100 µM | GI50 (SF-295 CNS) > 100 µM | GI50 (SW-620 colon) 17 µM | GI50 (UACC-257 melanoma) > 100 µM | GI50 (786-0 renal) 3.78 µM | GI50 (T-47D breast) 1.95 µM | GI50 (M14 melanoma) 1.05 µM | GI50 (MALME-3M melanoma) > 100 µM | GI50 (SK-MEL-2 melanoma) > 100 µM | GI50 (SN12C renal) 59.9 µM | GI50 (SK-MEL-28 melanoma) > 100 µM | GI50 (HCC-2998 colon) 5.09 µM | GI50 (OVCAR-5 ovarian) > 100 µM | GI50 (SK-OV-3 ovarian) 2 µM | GI50 (CCRF-CEM leukemia) 1.02 µM
> 100 µM: TGI (BT-549 breast) | TGI (PC-3 prostate) | TGI (OVCAR-3 ovarian) | TGI (OVCAR-4 ovarian) | TGI (LOX IMVI melanoma) | TGI (SNB-19 CNS) | TGI (HCT-116 colon) | TGI (HS 578T breast) | TGI (NCI-H522 lung) | TGI (MCF7 breast) | TGI (SNB-75 CNS) | TGI (NCI-H23 lung) | TGI (DU-145 prostate) | TGI (UACC-62 melanoma) | TGI (RXF 393 renal) | TGI (ACHN renal) | TGI (SF-539 CNS) | TGI (A549 NSCLC) | TGI (HCT-15 colon) | TGI (HT29 colon) | TGI (NCI-H460 lung) | TGI (SK-MEL-5 melanoma) | TGI (A498 renal) | TGI (NCI/ADR-RES ovarian) | TGI (CAKI-1 renal) | TGI (OVCAR-8 ovarian) | TGI (IGROV1 ovarian) | TGI (COLO 205 colon) | TGI (U251 CNS) | TGI (HOP-62 NSCLC) | TGI (RPMI-8226 leukemia) | TGI (MOLT-4 leukemia) | TGI (UO-31 renal) | TGI (KM12 colon) | TGI (K-562 leukemia) | TGI (EKVX NSCLC) | TGI (SF-295 CNS) | TGI (SW-620 colon) | TGI (UACC-257 melanoma) | TGI (786-0 renal) | TGI (T-47D breast) | TGI (M14 melanoma) | TGI (MALME-3M melanoma) | TGI (SK-MEL-2 melanoma) | TGI (SN12C renal) | TGI (SK-MEL-28 melanoma) | TGI (HCC-2998 colon) | TGI (OVCAR-5 ovarian) | TGI (SK-OV-3 ovarian) | TGI (CCRF-CEM leukemia)
> 100000 nM: TGI (SR leukemia)

COc1cc2c(cc1C)NC(=O)/C2=C\c1ccc(Oc2ccccc2)cc1
41.1 µM: TGI (MALME-3M melanoma)
46.9 µM: TGI (HS 578T breast)
26.8 µM: TGI (A498 renal)
25.6 µM: TGI (HT29 colon)
34.3 µM: TGI (OVCAR-3 ovarian)
29 µM: TGI (ACHN renal)
28.3 µM: TGI (BT-549 breast)
36.8 µM: TGI (SF-295 CNS)
27.9 µM: TGI (SK-MEL-5 melanoma)
48.4 µM: TGI (T-47D breast)
31.6 µM: TGI (RPMI-8226 leukemia)
36.9 µM: TGI (IGROV1 ovarian) | TGI (COLO 205 colon)
30.9 µM: TGI (UO-31 renal)
32.2 µM: TGI (NCI-H23 lung)
32.9 µM: TGI (SNB-19 CNS) | TGI (TK-10 renal)
26 µM: TGI (DU-145 prostate) | TGI (UACC-62 melanoma)
42 µM: TGI (NCI-H522 lung)
40.9 µM: TGI (SK-MEL-2 melanoma)
32.7 µM: TGI (SF-539 CNS)
inactive: GI50 (BT-549 breast) 14.2 µM | GI50 (PC-3 prostate) 12.4 µM | GI50 (OVCAR-3 ovarian) 17.2 µM | GI50 (OVCAR-4 ovarian) 16.4 µM | GI50 (LOX IMVI melanoma) 14 µM | GI50 (SNB-19 CNS) 17.8 µM | GI50 (HCT-116 colon) 5.85 µM | GI50 (HS 578T breast) 20.7 µM | GI50 (NCI-H522 lung) 12.4 µM | GI50 (MDA-MB-231 breast) 18.2 µM | GI50 (SNB-75 CNS) 21 µM | GI50 (NCI-H23 lung) 15.6 µM | GI50 (DU-145 prostate) 13.2 µM | GI50 (UACC-62 melanoma) 11.9 µM | GI50 (RXF 393 renal) 19.4 µM | GI50 (ACHN renal) 15.6 µM | GI50 (SF-539 CNS) 17.9 µM | GI50 (A549 NSCLC) 14.7 µM | GI50 (HCT-15 colon) 12.1 µM | GI50 (HT29 colon) 12.2 µM | GI50 (SK-MEL-5 melanoma) 14.5 µM | GI50 (HOP-92 NSCLC) 2030 nM | GI50 (A498 renal) 13.9 µM | GI50 (NCI/ADR-RES ovarian) 17.4 µM | GI50 (CAKI-1 renal) 17 µM | GI50 (OVCAR-8 ovarian) 22.8 µM | GI50 (IGROV1 ovarian) 15.7 µM | GI50 (COLO 205 colon) 20.7 µM | GI50 (U251 CNS) 12.8 µM | GI50 (HOP-62 NSCLC) 16.9 µM | GI50 (RPMI-8226 leukemia) 12.1 µM | GI50 (UO-31 renal) 14.8 µM | GI50 (KM12 colon) 13.6 µM | GI50 (EKVX NSCLC) 12.9 µM | GI50 (NCI-H226 lung) 16.7 µM | GI50 (SF-295 CNS) 17 µM | GI50 (MDA-MB-435) 17.8 µM | GI50 (SW-620 colon) 16.1 µM | GI50 (UACC-257 melanoma) 17.7 µM | GI50 (786-0 renal) 12 µM | GI50 (T-47D breast) 15.1 µM | GI50 (M14 melanoma) 15.1 µM | GI50 (MALME-3M melanoma) 20.1 µM | GI50 (SK-MEL-2 melanoma) 17 µM | GI50 (SN12C renal) 14.4 µM | GI50 (SK-MEL-28 melanoma) 15.7 µM | GI50 (HCC-2998 colon) 16.3 µM | GI50 (OVCAR-5 ovarian) 18.7 µM | GI50 (TK-10 renal) 16.8 µM | GI50 (SK-OV-3 ovarian) 17 µM | GI50 (CCRF-CEM leukemia) 8.36 µM
40.6 µM: TGI (RXF 393 renal)
30.4 µM: TGI (KM12 colon)
27.5 µM: TGI (SN12C renal) | TGI (CCRF-CEM leukemia)
29.5 µM: TGI (SK-MEL-28 melanoma)
9.19 µM: TGI (HOP-92 NSCLC)
17.7 µM: TGI (HCT-116 colon)
29.2 µM: TGI (M14 melanoma)
2100 nM: TGI (SR leukemia)
25.4 µM: TGI (U251 CNS)
11.8 µM: TGI (HL-60(TB) leukemia)
34 µM: TGI (UACC-257 melanoma)
27 µM: TGI (LOX IMVI melanoma) | TGI (EKVX NSCLC)
active: GI50 (HL-60(TB) leukemia) 51.1 nM | GI50 (SR leukemia) 69.7 nM
24.8 µM: TGI (786-0 renal)
24.5 µM: TGI (HCT-15 colon)
29.8 µM: TGI (PC-3 prostate)
36.5 µM: TGI (NCI/ADR-RES ovarian) | TGI (OVCAR-5 ovarian)
38.1 µM: TGI (MDA-MB-435)
64.6 µM: TGI (OVCAR-8 ovarian)
37.5 µM: TGI (MDA-MB-231 breast)
31.4 µM: TGI (SK-OV-3 ovarian)
32.6 µM: TGI (NCI-H226 lung)
32.5 µM: TGI (SW-620 colon)
37.4 µM: TGI (SNB-75 CNS)
33.4 µM: TGI (A549 NSCLC)
29.9 µM: TGI (OVCAR-4 ovarian) | TGI (HCC-2998 colon)
31 µM: TGI (HOP-62 NSCLC)
33 µM: TGI (CAKI-1 renal)
